In patent US11833146B2, “Dementia therapeutic agent combining pyrazoloquinoline derivative and donepezil” (Eisai R&D Management Co., Ltd., priority 2017, dated 2023):

System: rats with scopolamine-induced cognitive impairment
Experiment: Novel object recognition test using rats with scopolamine-induced cognitive impairment
Assay type: in vivo, rat (male Long Evans)
Settings: for effect on the percentage of exploration of the novel object (in words): vs disease control group, p<0.05; for percentage of exploration of the novel object in T2: scopolamine 0.7 mg/kg s.c., mean±standard error
Description: [Test Example 1] Novel Object Recognition Test Using Rats with Scopolamine-Induced Cognitive Impairment
Acetylcholine nervous system disorder has been reported in Alzheimer's disease and Lewy body dementia (Whitehouse et al., Science, 1982, vol. 215, p. 1237, Shimada et al., Neurology, vol. 73, p. 273, 2009, Tiraboschi et al., Neurology 54 (2000) 407-411, Peny et. al., NeuroReport, vol. 5, pp. 747-749 (1994)), and scopolamine-administered animals are utilizable as an animal model for Alzheimer's disease and Lewy body dementia.
Scopolamine is a muscarine receptor inhibitor which blocks acetylcholine nervous system transmission.
6-week-old male Long Evans rats (Institute for Animal Reproduction) were subjected to the test. A habituation process to the experimental procedure was carried out once per day for 2 days prior to the test. In the habituation process, a vehicle was administered to the rats, and then the rats were placed in an empty test apparatus (40 cm×30 cm×45 cm height) and allowed to explore for 3 minutes, and after then placed in a waiting chamber (13 cm×30 cm×45 cm height) for about 1 minute, they were returned to the empty test apparatus again and left for 5 minutes.
An acquisition trial (T1) was carried out on the day of the test. Compound (I) was orally administered 2 hours before T1. Donepezil hydrochloride was orally administered 1 hour before T1. Scopolamine (Wako Pure Chemical Industries, Ltd.) was subcutaneously administered 30 minutes before T1 at a dose of 0.7 mg/kg. In T1, the rats were habituated to the empty test apparatus for 3 minutes and then placed in the waiting chamber. After setting two identical objects in the test apparatus, the rats were returned into the test apparatus again and allowed to freely explore the two identical objects for 5 minutes. The rats were then returned into their rearing cages. After 2 hours, a retention trial (T2) was carried out. The rats were placed in the empty test apparatus for 3 minutes for habituation, and were then transferred into the waiting chamber. After setting an object used in T1 (“familiar” object) and an object not used in T1 (“novel” object) in the test apparatus, the rats were again returned into the test apparatus and allowed to freely explore these objects for 3 minutes. The objects were wiped with a wet wipe impregnated with ethanol after each experiment so as to leave no trace of odor. The behaviors of the rats during T1 and T2 were recorded by a digital video camera, and the total exploration time for each object was manually measured using a stopwatch. Exploratory behavior was defined as the behavior in which the rat brings its nose within 2 cm of the object and directs its nose toward the object.
In the novel object recognition test, the percentage of exploration of the novel object in T2 is considered to be an index for amnesia, reflecting discrimination between the familiar object and the novel object. The percentage of exploration of the novel object was calculated by the following formula. The percentage of exploration of the novel object (%)=N/(N+F)×100 F: time spent in exploring the familiar object N: time spent in exploring the novel object
Rats whose total time spent in exploring the objects during T1 or T2 was 10 seconds or less or rats whose percentage of the time spent in exploring either of the objects during T1 was not less than 70% or not more than 30% of the total exploration time were excluded from the data analysis.
The results were expressed as mean±standard error. The difference between the normal control group untreated with scopolamine and the disease control group treated with scopolamine was analyzed by an unpaired t-test (significant difference: *). The difference between the disease control group and the single drug-treated group was analyzed by Dunnett-type multiple comparison test (significant difference: #).

Compound | effect on the percentage of exploration of the novel object (in words) (1 mg/kg) | effect on the percentage of exploration of the novel object (in words) (3.3 mg/kg) | percentage of exploration of the novel object in T2 (Table 5, Compound (I) 1 mg/kg alone, oral) | effect on the percentage of exploration of the novel object (in words) (0.03 mg/kg) | effect on the percentage of exploration of the novel object (in words) (0.3 mg/kg) | percentage of exploration of the novel object in T2 (Table 3, Donepezil 0.03 mg/kg oral 1 h before T1) | percentage of exploration of the novel object in T2 (Table 4, Donepezil 0.1 mg/kg oral 1 h before T1) | percentage of exploration of the novel object in T2 (Table 4, Donepezil 0.3 mg/kg oral 1 h before T1, # significant vs disease control) | percentage of exploration of the novel object in T2 (Table 5, Donepezil 0.03 mg/kg alone, oral)
COc1ncc(C)c(-c2ccc3c(c2)[nH]c(=O)c2cnn([C@H]4CCOC4)c23)c1C [Compound (I), (S)-7-(2-methoxy-3,5-dimethylpyridin-4-yl)-1-(tetrahydrofuran-3-yl)-1H-pyrazolo[4,3-c]quinoline-4(5H)-one] | did not exhibit a significant effect | significant ameliorative effect | 64.9 ± 2.2% | – | – | – | – | – | –
COc1cc2c(cc1OC)C(=O)C(CC1CCN(Cc3ccccc3)CC1)C2 (stereo not drawn) [Donepezil, donepezil] | – | – | – | did not exhibit a significant effect | significant ameliorative effect | 62.7 ± 3.6% | 66.2 ± 4.0% | 70.4 ± 4.8# % | 57.8 ± 4.0%
